Laboratory results reported in patent publication US20050069531A1, “Use of hyaluronidase in the manufacture of an ophthalmic preparation for liquefying vitreous humor in the treatment of eye disorders” (priority 1995, published 2005).
Where two headings read alike, the source gives them in different places.

Test system: eyes of rabbits
Details: rabbit, intravitreal
Text: Fifty-two (52) healthy rabbits of the New Zealand Cross Variety (26 male, 26 female) weighing 1.5 kg to 2.5 kg, were individually marked for identification and were housed individually in suspended cages. The animals received a commercially available pelleted rabbit feed on a daily basis, with tap water available ad libitum.
The animals were divided into thirteen groups of 4 animals each (2 male, 2 female). Two animals in each group (1 male, 1 female) were selected for pretreatment fundus photography and fluorescein angiography.
The fundus photography was performed by restraining the animals and visualizing the optic nerve, retinal arcades with fundus with a KOWA® RC-3 Fundus Camera loaded with Kodak Gold 200 ASA film.
The fluorescein angiography involved a 1.5 ml injection of 2% sterile fluorescein solution via the marginal ear vein. Approximately 30 seconds post-injection the fluorescein was visualized upon localization of the optic nerve, retinal vessels and fundus.
The following day, each animal was anesthetized by intravenous administration of a combination of 34 mg/kg of ketamine hydrochloride and 5 mg/kg xylazine. The eyelids were retracted using a lid speculum, and the eyes were disinfected with an iodine-providone wash.
The experimental treatments administered to each animal group were as follows:
The day following the injections (Day 1), the 26 animals which were subjected to the fundus photography and fluorescein angiography were observed using the same methods as for the pre-dose examination.
The eyes were then surgically removed and placed in a fixture solution of 2.5% glutaraldehyde with 0.1 M phosphate buffered saline at pH 7.37.
Alternatively, one randomly selected rabbit was euthanized by pentobarbital injection but then fixed by intracardiac injection of the glutaraldehyde solution into the left ventricle to determine the effect of the fixation procedure on the histology findings within the enucleated eyes.
On Day 7, the 13 female rabbits that had been previously photographed and angiography performed were subjected to the same observations following the methods previously described.
The remaining 26 animals were euthanized as described above 7 days after dosing. The eyes were fixed in the same manner as those which had been fixed on day 2. Also, one randomly selected rabbit was subjected to the same intracardiac glutaraldehyde fixation procedure described hereabove for the previously randomly selected animal.
The eyes of the animals treated in this example were examined grossly and microscopically for evidence of treatment-related toxicities.

## thimerosal [BSS+thimerosal]
0.0075 mg thimerosal in BSS, day 2 post-dose
  evidence of treatment-related toxicity in the eyes (gross and microscopic examination): free of toxicity
0.0075 mg thimerosal in BSS, day 7
  toxic effects observed on day 7 (FIG. 3): significant toxic effects
0.0075 mg thimerosal in BSS, day 7 post-dose
  evidence of treatment-related toxicity in the eyes (gross and microscopic examination): breakdown of the blood-retinal barrier
0.025 mg thimerosal in BSS, days 2 and 7 post-dose
  evidence of treatment-related toxicity in the eyes (gross and microscopic examination): severe treatment-related toxic effects
At the dosages tested
  toxic effects in the eyes of rabbits (conclusion): do cause toxic effects
